Assay: Percentage of dimers by gas chromatography over time, 1-MCP/butane 1:1 and negative control
Format: physicochemical
Excerpt: 1-MCP and butane was mixed in liquid form in 1:1 ratio (v/v). Then, the mixture was transferred into the glass container.
Table 18 and FIG. 11 (plot line with circular data points) show the percentage of dimers in the composition as measured by gas chromatography at various points over time. The dotted line is a trend line that extrapolates the 1-MCP/butane plot. A negative control containing only 1-MCP was used for comparison. Table 19 and FIG. 11 (plot line with square data points) show the percentage of dimers in the negative control as measured by gas chromatography at the same points over time that the composition was measured.

## CC1=CC1 [negative control, 1-methylcyclopropene]
Time 1 h
  % of dimer: 0.229%
Time 3.75 h
  % of dimer: 0.401%
Time 25.75 h
  % of dimer: 4.013%
Time 123.5 h
  % of dimer: 49.588%

Reference: patent publication US20210235692A1, “Stable 1-Methylcyclopropene Compositions and Uses Thereof” (Fresh Inset S.A., priority 2020, published 2021)
